# Experimental data reported in patent US20090130691A1, “SCREENING PROTEINASE MODULATORS USING A CHIMERIC PROTEIN AND SKI-I PROPROTEIN CONVERTASE SUBSTRATES AND INHIBITORS” (Institut de Recherches Cliniques de Montreal, priority 2005, published 2009).
# Where two headings read alike, the source gives them in different places. Residues, ends and D or L forms follow the SMILES beside them. *: point of attachment. Decanoyl = CCCCCCCCCC(=O)*; CH2Cl = ClC*
# Assays:
# Furin-like PCs [1] = assay: Western blot of cell-surface biotinylated proteins of PCfur-1.6 cells immunoprecipitated with HA antibody; type: cell-based, human; settings: PCfur-1.6 cells infected with recombinant adenovirus, 1× and 2×
# From the text: Similar confirmation was obtained using Western blots of cell-surface biotinylated proteins, immunoprecipitated with the HA-antibody and detected on Western using horseraddish peroxidase coupled streptavidin (WB streptavidin-HRP). The Western blot protocol used was a standard one using a monoclonal commercial anti-HA antibody coupled to horseraddish peroxidase (Sigma; used as proposed by the manufacturer) at a final dilution of 1:5000. […] This confirms that the HA reappears specifically in the presence of a PCs inhibitor. […] Small molecules were also identified with the assay (see Example 7).
# Furin-like PCs [2] = assay: CELISA detection of HA tag on HeLa cells expressing Furin-like PC bait chimera; type: cell-based, human; settings: for effect of serpin expression on presence of the HA tag at the cell surface: PCfur-1.6 cells transfected or adenovirus infected
# Procedure: A CELISA test was then used to confirm the results obtained by the FACS analysis (FIG. 7A). Pools of cells transfected with the chimera were rinsed twice with PBS. Then, at room temperature, the following steps were performed. Cells were fixed in PBS and 4% formalin 10 min. They were then rinsed twice with PBS. The anti-HA/peroxidase antibody diluted 1/8000 in PBS and 1% powdered milk (filtered) was then added. The cells were incubated 30 minutes on Labquake™. Again, the cells were rinsed twice with PBS. The substrate (2,2′ azino-Bis (3-ethylobenzathiazoline-6-sulfonic acid); Sigma) was added to the cells and the mixture was incubated 15 minutes. The OD was read at 405 nm and 470 nm for turbidity, and the subtraction of the reading at both wavelengths (405-470) gave normalized product absorbance. The CELISA assay was performed in the presence of different concentrations of dec-RVKR-cmk (SEQ ID NO:35). The signal/noise ratio obtained in the presence of 60 μM of dec-RVKR-CMK (SEQ ID NO: 35) was above 15. The CELISA (FIG. 7B) confirmed that the presence of the inhibitor increases the detection of HA at the surface of the cells.
# Some PCfur-1.6 cells were transfected with an expression vector containing a cDNA coding for either α1-PDX or the α1-AT using lipofectamine as described by the manufacturer (Invitrogen) (less than 20% efficacy), or infected using recombinant adenovirus (Ad) as described (Benjannet et al., 2004) (near 100% efficacy).
# Furin-like PCs [3] = assay: FACS detection of HA tag on HeLa cells expressing Furin-like PC bait chimera; type: cell-based, human
# Procedure: HeLa cells were submitted to two rounds of fluorescence activated cell sorting (FACS) using Alexa488™ as fluorophore with a MoFlo™ cell sorter (Cytomation, Fort Collins, Colo., USA) to obtain pools of cells expressing the Fc (Fc positive) but negative for the HA tag (HA negative) (FIG. 7A, darker dots). The presence of Fc tags was the sign that cleavage by Furin-like PCs at the bait sequence KRIRLRR←SPD (SEQ ID NO: 29) had released the HA tag.
# This isolated pool of cells was incubated for 6 h with 60 μM of dec-RVKR-cmk (SEQ ID NO: 35), a potent PC-inhibitor, and submitted to FACS analysis.
# The FACS sorted cells pool was then used to isolate individual clones: 10 clones were isolated of which one (clone PCfur-1.6) expresses a large amount of Fc (i.e. […] chimera) at the cell surface.
# [4] = system: endogenous Furin-like PCs; assay: Ex vivo processing of proPDGF-A in HEK293 cells stably expressing PDGF-A-V5; type: cell-based, human
# NARC-1/PCSK9 = assay: Western blot of cells expressing NARC-1/PCSK9 bait (SN11) chimera; type: cell-based, human; settings: 50 μM, 6 h
# From the text: A specific CELISA to the NARC-1/PCSK9 was designed using the approach described in Example 1 above. Chimeras were constructed using sequences known to be cleavable by NARC-1/PCSK9 (SSVFAQ-SIPWN (SEQ ID NO: 31)), or EEDSSVFAQ-SIPWN (SEQ ID NO: 55) combined to full length ACE2-CT segment, and then used to transfect HuH7. Chimeras are also similarly constructed using KHQKLL-SIDLD (SEQ ID NO: 32)). HuH7 was selected amongst 20 cell lines as being one in which the NARC-1/PCSK9 expression level the highest.
# Cells expressing chimera containing the NARC/PCSK9 bait SSVFAQ-SIPWN (SEQ ID NO: 31) (SN11) were analyzed by Western blot. Cells were treated or not for 6 h with 50 μM of dec-RVKR-cmk (SEQ ID NO: 35) to inhibit endogenous Furin-like enzymes and thus indirectly activate NARC/PCSK9. Cells express an approximately equal amounts of ER- (endo H sensitive, not shown) and Golgi-associated (endo H resistant, not shown) SN11 chimera as observed using an HA mAb. […] The Western blot protocol used was a standard one using a monoclonal commercial anti-HA antibody coupled to horseradish peroxidase (Sigma; used as proposed by the manufacturer) at a final dilution of 1:5000.
# SKI-1 [5] = biological target: T1, SKI-1 (Homo sapiens, UniProt Q14703); type: cell-based
# T1 construct: For SKI-1, several cell lines expressing SKI-1 could be used; endogenous in cells; host or cells: HuH7
# T1 sequence (Q14703 187-1052): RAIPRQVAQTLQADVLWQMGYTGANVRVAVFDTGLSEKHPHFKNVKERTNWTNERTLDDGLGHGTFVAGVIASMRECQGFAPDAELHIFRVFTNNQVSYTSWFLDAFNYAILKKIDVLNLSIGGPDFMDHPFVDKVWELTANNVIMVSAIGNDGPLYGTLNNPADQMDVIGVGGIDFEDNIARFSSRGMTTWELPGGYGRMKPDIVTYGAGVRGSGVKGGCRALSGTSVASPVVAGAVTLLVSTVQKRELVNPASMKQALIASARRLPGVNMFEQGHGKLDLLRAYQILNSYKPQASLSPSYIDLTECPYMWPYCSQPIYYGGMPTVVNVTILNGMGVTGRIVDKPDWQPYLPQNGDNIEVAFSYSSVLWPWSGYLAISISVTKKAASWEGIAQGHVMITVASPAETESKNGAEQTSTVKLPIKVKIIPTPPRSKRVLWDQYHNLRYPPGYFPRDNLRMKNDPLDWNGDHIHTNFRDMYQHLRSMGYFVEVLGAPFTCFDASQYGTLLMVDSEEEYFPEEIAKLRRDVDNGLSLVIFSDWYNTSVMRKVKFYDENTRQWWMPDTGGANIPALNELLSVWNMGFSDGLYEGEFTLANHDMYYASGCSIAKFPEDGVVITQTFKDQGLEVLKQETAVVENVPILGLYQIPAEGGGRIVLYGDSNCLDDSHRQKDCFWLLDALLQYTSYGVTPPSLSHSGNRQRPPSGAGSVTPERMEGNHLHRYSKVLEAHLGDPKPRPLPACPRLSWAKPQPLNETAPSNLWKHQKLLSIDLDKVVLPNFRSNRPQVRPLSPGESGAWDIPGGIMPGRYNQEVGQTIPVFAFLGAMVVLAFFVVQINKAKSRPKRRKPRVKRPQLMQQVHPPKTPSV
# SKI-1 [6] = biological target: T2, SKI-1 (Cricetulus griseus, UniProt Q9Z2A8); assay: cell-based; design: species or system hamster
# T2 construct: endogenous in cells; host or cells: CHOK1
# T2 sequence (Q9Z2A8 187-1052): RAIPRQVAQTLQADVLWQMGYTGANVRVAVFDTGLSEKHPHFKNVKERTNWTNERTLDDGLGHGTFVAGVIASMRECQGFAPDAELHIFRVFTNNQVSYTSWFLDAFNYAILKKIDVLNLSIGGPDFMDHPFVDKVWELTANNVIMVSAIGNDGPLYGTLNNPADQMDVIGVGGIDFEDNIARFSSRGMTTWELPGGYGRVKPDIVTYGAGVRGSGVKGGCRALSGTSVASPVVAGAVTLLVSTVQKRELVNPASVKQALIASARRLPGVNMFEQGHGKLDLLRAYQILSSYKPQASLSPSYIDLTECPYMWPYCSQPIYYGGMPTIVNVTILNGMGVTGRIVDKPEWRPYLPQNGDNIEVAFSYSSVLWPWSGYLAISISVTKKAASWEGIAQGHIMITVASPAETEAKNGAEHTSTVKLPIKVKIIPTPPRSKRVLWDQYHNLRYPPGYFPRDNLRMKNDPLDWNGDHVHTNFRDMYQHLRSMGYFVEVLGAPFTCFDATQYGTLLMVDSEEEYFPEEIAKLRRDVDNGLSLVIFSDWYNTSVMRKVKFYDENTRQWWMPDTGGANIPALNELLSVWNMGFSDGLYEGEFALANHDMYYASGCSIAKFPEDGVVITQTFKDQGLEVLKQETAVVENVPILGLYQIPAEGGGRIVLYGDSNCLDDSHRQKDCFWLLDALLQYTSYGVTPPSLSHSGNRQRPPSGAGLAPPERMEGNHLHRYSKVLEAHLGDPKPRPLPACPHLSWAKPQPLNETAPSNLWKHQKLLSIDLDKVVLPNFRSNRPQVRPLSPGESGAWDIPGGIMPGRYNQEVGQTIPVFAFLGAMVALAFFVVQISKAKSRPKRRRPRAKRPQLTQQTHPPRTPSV
# SKI-1 [7] = biological target: T2, SKI-1; assay: cell-based
# [8] = biological target: endogenous Furin-like PCs; assay: cell-based or functional assay
# [9] = biological target: T3, SKI-1 (endogenous enzyme of CHOK1 cells) (UniProt Q9Z2A8); assay: cell-based or functional assay
# T3 sequence: T2 sequence (Q9Z2A8 187-1052)
compound,measurement,setting,value
"α1-AT: serpin α1-antitrypsin, which does not inhibit PCs; control",HA-tagged chimera at the cell surface by Western blot,Furin-like PCs [1],no chimeric HA-tagged chimera could be detected
same,effect of serpin expression on presence of the HA tag at the cell surface,Furin-like PCs [2],had no effect
dec-RVKR-cmk (Decanoyl-RVKR-CH2Cl),conversion of cleaved chimera into uncleaved form exhibiting the HA-tag at the cell surface (FACS),"Furin-like PCs [3]; clone PCfur-1.6, as little as 30 μM",completely converted into an uncleaved form
same,re-appearance of the HA tag at the cell surface (FACS),"Furin-like PCs [3]; stable HeLa cell pool, 60 μM, 6 h",very significant reversion of the level of the chimeric protein to that of the uncleaved form
same,concentration that completely inhibits proPDGF-A processing,"[4]; HEK293 cells, overnight, Western blot",~3 µM
same,level of Golgi-associated HA tag versus ER-associated (indirect activation of NARC-1/PCSK9),NARC-1/PCSK9,a substantial decrease in the level of the Golgi-associated HA tag versus the ER-one
same,signal/noise ratio in CELISA,"Furin-like PCs [2]; HeLa cell pool, 60 μM inhibitor",above 15
CCCCCCCCCC(=O)N[C@@H](Cc1ccc(O)cc1)C(=O)N[C@H](C(=O)N[C@@H](CO)C(=O)N[C@@H](CCCNC(=N)N)C(=O)N[C@@H](CCCNC(=N)N)C(=O)N[C@@H](CC(C)C)C(=O)N[C@@H](CC(C)C)C(=O)CCl)[C@@H](C)CC [dec-YISRRLL-cmk] (Decanoyl-YISRRLL-CH2Cl),re-appearance of the HA tag at the cell surface (FACS),SKI-1 [5],A reversion of the level of the chimeric protein to that of the uncleaved form
same,IC50,SKI-1 [6],~7 µM
same,IC50,SKI-1 [7],≤ 1 µM
same,inhibition of ex vivo processing of proPDGF-A (in words),[4],not an effective inhibitor
dec-RRLL-cmk (peptide),inhibition of proPDGF-A processing in HEK293 cells (Western blot of media),[8],> 100 µM
CCCCCCCCCC(=O)N[C@H](C(=O)N[C@@H](CO)C(=O)N[C@@H](CCCNC(=N)N)C(=O)N[C@@H](CCCNC(=N)N)C(=O)N[C@@H](CC(C)C)C(=O)N[C@@H](CC(C)C)C(=O)CCl)[C@@H](C)CC [dec-ISRRLL-cmk] (Decanoyl-ISRRLL-CH2Cl),IC50,SKI-1 [6],~20 µM
dec-ISRRLL-cmk (peptide),50% inhibition of the processing of endogenous proSREBP-2 in CHOK1 cells (Western blot),[9],20 µM
"CCCCCCCCCC(=O)N[C@@H](CCCNC(=N)N)C(=O)N[C@@H](CCCNC(=N)N)C(=O)N[C@@H](CC(C)C)C(=O)N[C@@H](CC(C)C)C(=O)CCl [dec-RRLL-cmk, reference compound] (Decanoyl-RRLL-CH2Cl)",IC50,SKI-1 [7],≤ 1 µM
"α1-PDX: serpin variant, a known PCs inhibitor, expressed from cDNA or adenovirus",HA-tagged chimera at the cell surface by Western blot,Furin-like PCs [1],the presence of the HA tag at the cell surface of these cells could be observed
same,"increase in absorbance in CELISA, Ad:PDX compared to Ad:AT",Furin-like PCs [2]; PCfur-1.6 cells infected with recombinant adenovirus,~7 fold
same,effect of serpin expression on presence of the HA tag at the cell surface,Furin-like PCs [2],increased the presence of the HA tag at the cell surface
